Data published in PMC12156185, “Synthesis of Cyclic Hexapeptides via the Hydrazide Method and Evaluation of Their Antibacterial Activities” (Molecules, 2025).
In brackets after ≈: the same amount, converted by molar mass. Where a SMILES comes first, the peptide text is derived from it.

How the values were obtained:
Type in all cases: cell-based
[1] = tested on: Acinetobacter baumannii (BNCC 337173)
Description: (§1) The antimicrobial and antifungal activities of 11 cyclic hexapeptides (Cy-f1 to Cy-f11) were evaluated by determining their minimum inhibitory concentrations (MICs) against a panel of pathogens (Figure 4). These pathogens included Gram-negative bacteria (Escherichia coli, Klebsiella pneumoniae, Pseudomonas aeruginosa), Gram-positive bacteria (Staphylococcus aureus, Bacillus subtilis, Staphylococcus aureus [MRSA], […]), and fungi (Candida tropicalis, Cryptococcus neoformans).
(§2) The antibacterial activity of peptide analogs was tested against different bacterial strains, all purified cyclotides underwent antibacterial testing against Gram-positive bacterium Staphylococcus aureus (BNCC 186335), Bacillus subtilis (BNCC 109047), and Staphylococcus aureus (MRSA, BNCC 330041), Gram-negative bacteria, including Acinetobacter baumannii (BNCC 337173), Pseudomonas aeruginosa (BNCC 125486), and […]. Fungi included Candida parapsilosis (BNCC 336515) and Candida tropicalis (BNCC 340288). All the above strains are from the Henan Provincial Engineering Research Center of Industrial Microorganisms (Henan, China). Escherichia coli (ATCC 25922) and Klebsiella pneumoniae (CMCC(B) 46117) were sourced from Guangzhou HuanKai Microbial Technology Co., Ltd. (Guangzhou, China). The peptides’ MIC was determined using the Clinical and Laboratory Standards Institute broth dilution procedure with slight modifications.
(§3) Colonies of these bacterial strains were grown in respective agar media, then inoculated in Mueller Hinton (MH) broth and incubated at 37 °C overnight. The peptide solutions were first diluted 1 in 100 (from the stock solution at 20 mM) and then further two-fold dilution in MH broth in a sterile 96-well plate was performed, resulting in 100 µL of broth containing increasing concentrations. Bacteria in their exponential growth phase were diluted in MH broth, and 100 µL of this suspension was added in each well. […] Then, these plates were incubated at 37 °C for 20–22 h.
(§4) Each test was performed at least three times. MIC (minimum inhibitory concentration) values were determined as the concentrations of peptides that caused >99% inhibition of bacterial growth.

[2] = tested on: Klebsiella pneumoniae (CMCC(B) 46117)
Description: as §1, §2, §3, §4

[3] = tested on: Pseudomonas aeruginosa (BNCC 125486)
Description: as §1, §2, §3, §4

[4] = tested on: Staphylococcus aureus (BNCC 186335)
Description: as §1, §2, §3, §4

[5] = tested on: Staphylococcus aureus (MRSA, BNCC 330041)
Description: as §1, §2, §3, §4

[6] = tested on: Cryptococcus neoformans (BNCC 225501); conditions: BNCC 225501, 48 h
Description: as §1, §2, §4

[7] = tested on: Candida tropicalis (BNCC 340288); conditions: BNCC 340288, 24 h
Description: as §1, §2
Candida tropicalis was cultured on Sabourad Dextrose Agar (SDA). A single colony was inoculated in YM broth medium and grown overnight at 37 °C while shaking. Peptides were diluted in SDB media by two-fold dilution, resulting in 100 µL of medium containing increasing concentrations. The overnight culture (turbidity at OD600 = 1) was 1000× diluted in SDB. Then 100 µL of this suspension was added to each well, resulting in a final 200 µL suspension containing 2–4 × 10^5 CFU/mL. The plate was incubated at 37 °C for 24 h.
as §4

Candida tropicalis = experiment: Scanning electron microscopy of treated cells; conditions: 4 MIC (32 μM for Cy-f2, 128 μM for Cy-f4), 1 h, 30 °C, 5000× magnification; clotrimazole as positive control
Description: (§5) To investigate the morphological effects of the cyclic peptides Cy-f2 and Cy-f4 on Klebsiella pneumoniae and Candida tropicalis, scanning electron microscopy (SEM) was performed (Figure 7). […] Untreated cells served as controls. Samples were fixed, dehydrated, and coated with gold for SEM imaging at 5000× magnification. Effects on Klebsiella pneumoniae (Panel A). […] The bactericidal efficacy of Cy-f2 and Cy-f4 against Klebsiella pneumoniae was verified through comparative evaluation of the treatment group and the positive control group. Effects on Candida tropicalis (Panel B) untreated C. tropicalis cells in the control group appeared as smooth, spherical to oval-shaped yeast cells with intact cell walls.
(§6) According to the method of He with adjustments, bacteria were grown to the logarithmic phase and then washed and resuspended in sterile PBS to an OD600 of 0.4. They were incubated with an equal volume of AMPs at 4× MIC for 1 h. After incubation, the bacterial pellets were washed three times with PBS and centrifuged at 3500 rpm for 4 min. The pellets were then fixed overnight in 2.5% (w/v) glutaraldehyde. The bacterial samples were dehydrated using a series of ethanol solutions with increasing concentrations (30%, 50%, 70%, 90%, and 100%). After dehydration, the samples were dried and sputter-coated with gold. Bacterial fragmentation was observed using scanning electron microscopy (HITACHI SU5000, Tokyo, Japan). Untreated bacterial suspensions served as the negative control.

Klebsiella pneumoniae [8] = experiment: Scanning electron microscopy of treated cells; conditions: 4 MIC (64 μM for Cy-f2, 128 μM for Cy-f4), 1 h, 37 °C, 5000× magnification; cefoperazone sodium as positive control
Description: as §5, §6

red blood cells (RBCs) = tested on: red blood cells (RBCs)
Description: Based on the antimicrobial activity screening, a hemolysis assay was conducted to assess the toxicity of Cy-f1, Cy-f2, and Cy-f4 (Figure 5). For Cy-f1, the hemolysis percentage remained consistently low across all tested concentrations. At 8 μM, Cy-f1 induced approximately 0.12% hemolysis. […] For Cy-f2, the hemolysis percentage also remained consistently low across all tested concentrations. At 8 μM, Cy-f2 induced approximately 0.3% hemolysis, and Cy-f2 stayed stable at 0.3% at 16 μM and 32 μM. […] At 8 μM, it induced approximately 0.7% hemolysis, […]. However, hemolysis increased slightly with higher concentrations, reaching approximately […] and 1.1% at 16 μM and 32 μM, respectively. […] In this experiment Triton X-100 was used as a positive control with a hemolysis rate of 100%.
Figure S4. SEM images of RBCs treated with Cy-f1, Cy-f2, and Cy-f4. (A) SEM images of RBCs
treated with Cy-f1. (B) SEM images of RBCs treated with Cy-f2. (C) SEM images of RBCs treated […]

[9] = tested on: Bacillus subtilis (BNCC 109047)
Description: as §1, §2, §3, §4

[10] = tested on: Escherichia coli (ATCC 25922)
Description: as §1, §2, §3, §4

Klebsiella pneumoniae [11] = experiment: Time-dependent growth kinetics (time-kill); conditions: 37 °C
Description: Bacterial viability, expressed as logarithmic colony-forming units per milliliter (Lg CFU/mL), was monitored over 240 min at 37 °C. Results are presented in Figure 6, X as the mean Lg CFU/mL ± standard deviation (SD) from three independent experiments. […] At 2× MIC, a more pronounced effect was observed, with the Lg CFU/mL decreasing to 4.0, a 3.9 Lg CFU/mL reduction. […] This rapid killing profile supports Cy-f2’s potential as an effective antimicrobial peptide.
Klebsiella pneumoniae was cultured in fresh LB nutrient broth at 37 °C following the protocol described by Huang et al., with modifications. Upon reaching the logarithmic growth phase, the bacterial suspension was adjusted to approximately 10^6 CFU/mL and subsequently treated with cyclized f2 at concentrations corresponding to 1×, 2×, and 4× the minimum inhibitory concentration (MIC). Aliquots were collected at 1, 2, 3, and 4 h post-treatment, serially diluted, and plated onto solid agar medium for 24 h incubation. Colony-forming units (CFUs) were enumerated to assess bacterial viability. All experiments were performed in triplicate. Time-dependent growth kinetics were analyzed by plotting bacterial survival (log10 CFU/mL) against time (h) using GraphPad Prism9.5, enabling statistical evaluation of the bactericidal and bacteriostatic effects of the cyclic hexapeptide.

SMILES | MIC against A. baumannii [1] [µM] | MIC against K. pneumoniae [2] [µM] | MIC against P. aeruginosa [3] [µM] | MIC against S. aureus [4] [µM] | MIC against MRSA [5] [µM] | MIC against C. neoformans [6] [µM] | MIC against C. tropicalis [7] [µM] | Cell morphology of C. tropicalis by SEM (Candida tropicalis) | Cell morphology of K. pneumoniae by SEM (Klebsiella pneumoniae [8]) | Morphology of red blood cells by SEM (red blood cells (RBCs)) | MIC against B. subtilis [9] [µM] | MIC against E. coli [10] [µM] | Reduction of bacterial viability after 240 min (Klebsiella pneumoniae [11]; 1× MIC (16 μM)) [Lg CFU/mL] | Bacterial viability after 240 min (Klebsiella pneumoniae [11]; 1× MIC (16 μM), start 6.55 Lg CFU/mL, mean of three independent experiments) [Lg CFU/mL] | Reduction of bacterial viability after 240 min (Klebsiella pneumoniae [11]; 2× MIC (32 μM)) [Lg CFU/mL] | Bacterial viability after 240 min (Klebsiella pneumoniae [11]; 2× MIC (32 μM), mean of three independent experiments) [Lg CFU/mL] | Bacterial viability within 240 min (Klebsiella pneumoniae [11]; 4× MIC (64 μM), mean of three independent experiments)
CC(C)C[C@@H]1NC(=O)[C@H](CCCCN)NC(=O)[C@H](CS)NC(=O)[C@H](Cc2ccccc2)NC(=O)[C@H](Cc2c[nH]c3ccccc23)NC(=O)[C@H](CCCNC(=N)N)NC1=O [Cy-f4] (cyclo(CKLRWF)) | 64 (≈ 53.4 µg/mL) | 32 (≈ 26.7 µg/mL) | 128 (≈ 107 µg/mL) | 16 (≈ 13.3 µg/mL) | 32 (≈ 26.7 µg/mL) | 32 (≈ 26.7 µg/mL) | 64 (≈ 53.4 µg/mL) | mild surface roughening and slight deformation but retaining overall structural integrity | extensive membrane rupture, cell deformation, and leakage of intracellular contents | maintained well-preserved cell morphology | – | – | – | – | – | – | –
CC[C@H](C)[C@@H]1NC(=O)[C@H](CCCCN)NC(=O)[C@H](CC(C)C)NC(=O)[C@H](CCCNC(=N)N)NC(=O)[C@H](CS)NC(=O)[C@H](Cc2ccccc2)NC1=O [Cy-f2] (cyclo(CRLKIF)) | – | 16 (≈ 12.2 µg/mL) | 16 (≈ 12.2 µg/mL) | 8 (≈ 6.09 µg/mL) | 32 (≈ 24.4 µg/mL) | 8 (≈ 6.09 µg/mL) | 16 (≈ 12.2 µg/mL) | surface irregularities, cell wall deformation, and some degree of cell collapse | surface roughening, cell shrinkage, and partial membrane disruption | maintained well-preserved cell morphology | 32 (≈ 24.4 µg/mL) | 16 (≈ 12.2 µg/mL) | 2.4 | 5.60 | 3.9 | 4.0 | below 1.0 Lg CFU/mL
CC[C@H](C)[C@@H]1NC(=O)[C@H](CCCCN)NC(=O)[C@H](CC(C)C)NC(=O)[C@H](CC(C)C)NC(=O)[C@H](CS)NC(=O)[C@H](Cc2ccccc2)NC1=O [Cy-f1] (cyclo(CLLKIF)) | 32 (≈ 23 µg/mL) | 64 (≈ 46 µg/mL) | 128 (≈ 91.9 µg/mL) | 8 (≈ 5.74 µg/mL) | 16 (≈ 11.5 µg/mL) | 16 (≈ 11.5 µg/mL) | 64 (≈ 46 µg/mL) | – | – | maintained well-preserved cell morphology | 4 (≈ 2.87 µg/mL) | 64 (≈ 46 µg/mL) | – | – | – | – | –
CC[C@H](C)[C@@H]1NC(=O)[C@H](CS)NC(=O)[C@H]([C@@H](C)CC)NC(=O)[C@H]([C@@H](C)CC)NC(=O)[C@@H]2CCCN2C(=O)[C@H](CCCNC(=N)N)NC1=O [Cy-f11] (cyclo(CIRPII)) | > 200 | 64 (≈ 44.5 µg/mL) | > 200 | > 200 | > 200 | 128 (≈ 89.1 µg/mL) | 64 (≈ 44.5 µg/mL) | – | – | – | 64 (≈ 44.5 µg/mL) | > 200 | – | – | – | – | –
CCN1CCN(C(=O)N[C@@H](C(=O)N[C@@H]2C(=O)N3C(C(=O)O)=C(CSc4nnnn4C)CS[C@H]23)c2ccc(O)cc2)C(=O)C1=O [cefoperazone sodium, reference compound] | – | – | – | – | – | – | – | – | surface roughening, cell shrinkage, and partial membrane disruption | – | – | – | – | – | – | – | –
Clc1ccccc1C(c1ccccc1)(c1ccccc1)n1ccnc1 [clotrimazole, reference compound] | – | – | – | – | – | – | – | fragmentation and shrinkage | – | – | – | – | – | – | – | – | –
